Results: publication PMC4429810, “Heat shock protein 90 inhibitors repurposed against Entamoeba histolytica” (Frontiers in Microbiology, 2015)
Structures can show the parent of a compound that is named as a salt.

What was measured:
[1] = target: T1, EhHsp90 ATP-binding domain (Entamoeba histolytica, UniProt C4MBP1); test: bis-ANS fluorescence displacement screen; conditions: read-out: Percent inhibition of fluorescence in protein screen at 2.5 μM (%)
T1 construct: gene EHI_102270; cloned from genomic DNA in pET28a, E. coli BL21(DE3); His tag said to be cut by TEV; pocket residues C49, C103, R109
T1 sequence (C4MBP1 1-215): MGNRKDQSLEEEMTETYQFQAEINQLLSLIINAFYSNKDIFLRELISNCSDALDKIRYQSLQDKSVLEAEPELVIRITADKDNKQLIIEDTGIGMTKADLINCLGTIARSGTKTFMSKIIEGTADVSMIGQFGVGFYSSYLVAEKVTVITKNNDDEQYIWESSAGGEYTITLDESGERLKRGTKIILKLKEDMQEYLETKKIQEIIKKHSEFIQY
Description: bis-ANS fluorescence displacement screen on EhHsp90 ATP-binding domain

[2] = target: T2, PfHsp90 ATP-binding domain (Plasmodium falciparum, UniProt Q8IC05); test: bis-ANS fluorescence displacement screen; conditions: bis-ANS 5 μM, protein 1 μM, Tris pH 7.5, 10 mM MgCl2, 50 mM KCl, 37°C; competition with bis-ANS at ATP-binding domain
T2 construct: gene PF3D7_0708400; from genomic DNA in pET28b, E. coli BL21(DE3); His tag said to be cut by TEV; pocket residues A38, N92, R98
T2 sequence (Q8IC05 1-211): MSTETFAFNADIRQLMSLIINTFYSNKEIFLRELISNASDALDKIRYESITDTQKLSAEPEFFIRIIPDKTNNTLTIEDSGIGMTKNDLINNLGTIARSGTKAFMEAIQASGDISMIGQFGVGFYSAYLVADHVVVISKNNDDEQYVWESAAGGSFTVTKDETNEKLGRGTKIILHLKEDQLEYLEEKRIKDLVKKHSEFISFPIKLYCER

SMILES | inhibition at 2.5 µM [1] [%] | bis-ANS fluorescence displacement screen [2]
CC[C@@]1(O)C[C@H](O[C@H]2C[C@H](N(C)C)[C@H](O)[C@H](C)O2)c2c(cc3c(c2O)C(=O)c2c(O)ccc(O)c2C3=O)[C@H]1C(=O)OC [Rutilantin] | 77.1 | 
COc1cccc2c1C(=O)c1c(O)c3c(c(O)c1C2=O)C[C@@](O)(C(C)=O)C[C@@H]3O[C@H]1C[C@H](N)[C@H](O)[C@H](C)O1 [Daunorubicin hydrochloride] | 83.2 | 
C=CC1=C(C)/C(=C/c2[nH]c(Cc3[nH]c(/C=C4\NC(=O)C(C)=C4C=C)c(C)c3CCC(=O)O)c(CCC(=O)O)c2C)NC1=O [Bilirubin] | 73.7 | 
CO[C@H]1/C=C/O[C@@]2(C)Oc3c(C)c(O)c4c(c3C2=O)C2=NC3(CCN(CC(C)C)CC3)NC2=C(NC(=O)/C(C)=C\C=C\[C@H](C)[C@H](O)[C@@H](C)[C@@H](O)[C@@H](C)[C@H](OC(C)=O)[C@@H]1C)C4=O [Rifabutin] | 73.7 | rifabutin showed the highest inhibition against PfHsp90
O=C1Nc2ccc(I)cc2/C1=C/c1cc(Br)c(O)c(Br)c1 [GW5074] | 70.5 | 
CN(C)c1ccc(C(=C2C=CC(=[N+](C)C)C=C2)c2ccc(N(C)C)cc2)cc1 [Gentian Violet] | 99.3 | 
N#C/C(=C\c1ccc(O)c(O)c1)C(=O)c1ccc(O)c(O)c1 [Tyrphostin AG 538] | 75 | 
N=C1C=CC(=C(c2ccc(N)cc2)c2ccc(N)cc2)C=C1 [Pararosaniline pamoate] | 99 | 
CC(C)/N=c1\cc2n(-c3ccc(Cl)cc3)c3ccccc3nc-2cc1Nc1ccc(Cl)cc1 [Clofazimine] | 73.7 | 
CN(C)c1ccc(C(=C2C=CC(=[N+](C)C)C=C2)c2ccccc2)cc1 [WB 64 (Malachite Green)] | 84.9 | 
CCN(CC)Cc1cc(Nc2ccnc3cc(Cl)ccc23)ccc1O [Amodiaquindihydrochloride dihydrate] | 82.1 | 
COc1ccc2cc3[n+](cc2c1OC)CCc1cc2c(cc1-3)OCO2 [Berberine chloride] | 78.3 | 
O=C1c2ccccc2C(=O)c2c(O)c(O)cc(O)c21 [Purpurin] | 75 | 
CCN(CC)CCNc1ccc(CO)c2sc3ccccc3c(=O)c12 [Hycanthone] | 90.9 | 
O=C1c2c(O)ccc(O)c2C(=O)c2c(NCCNCCO)ccc(NCCNCCO)c21 [Mitoxantronedihydrochloride] | 95.3 | 
C[n+]1cc2c3c(ccc2c2ccc4cc5c(cc4c21)OCO5)OCO3 [Sanguinarine sulfate] | 71.3 | 
